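In this assay, cells in 96-well plates receive the compound at five concentrations for 48 hours. Endpoints are linearly interpolated between the surrounding concentrations. GI50 = concentration required for 50% inhibition of growth.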 Active and inactive are the calls of the source. No stated cut-off is given here; in the data, active = GI50 up to about 1.1 µM and inactive = higher.
Key:
Test in all cases: inhibition of tumour cell growth, NCI panel, 48 h
786-0 = tested on: 786-0
A549 = tested on: A549
ACHN = tested on: ACHN
COLO 205 = tested on: COLO 205
DLD-1 = tested on: DLD-1
DMS-114 = tested on: DMS-114
DMS-273 = tested on: DMS-273
HCC 2998 = tested on: HCC 2998
HCT-15 = tested on: HCT-15
HL-60 = tested on: HL-60
HOP-18 = tested on: HOP-18
HOP-92 = tested on: HOP-92
HT-29 = tested on: HT-29
IGROV-1 = tested on: IGROV-1
K562 = tested on: K562
KM12 = tested on: KM12
LOX IMVI = tested on: LOX IMVI
LXFL 529 = tested on: LXFL 529
M14 = tested on: M14
MOLT-4 = tested on: MOLT-4
Malme-3M = tested on: Malme-3M
NCI-H23 = tested on: NCI-H23
NCI-H460 = tested on: NCI-H460
NCI-H522 = tested on: NCI-H522
OVCAR-3 = tested on: OVCAR-3
OVCAR-4 = tested on: OVCAR-4
OVCAR-8 = tested on: OVCAR-8
RPMI-8226 = tested on: RPMI-8226
RXF 393 = tested on: RXF 393
RXF 631 = tested on: RXF 631
SF-295 = tested on: SF-295
SF-539 = tested on: SF-539
SK-MEL-28 = tested on: SK-MEL-28
SK-MEL-2 = tested on: SK-MEL-2
SK-MEL-5 = tested on: SK-MEL-5
SK-OV-3 = tested on: SK-OV-3
SN12C = tested on: SN12C
SNB-19 = tested on: SNB-19
SNB-75 = tested on: SNB-75
SNB-78 = tested on: SNB-78
SR = tested on: SR
SW-620 = tested on: SW-620
TK-10 = tested on: TK-10
U-251 = tested on: U-251
UACC-257 = tested on: UACC-257
UACC-62 = tested on: UACC-62
UO-31 = tested on: UO-31
XF498 = tested on: XF498
A498 = tested on: A498
CAKI-1 = tested on: CAKI-1
CCRF-CEM = tested on: CCRF-CEM
EKVX = tested on: EKVX
HCT-116 = tested on: HCT-116
HOP-62 = tested on: HOP-62
KM-20L2 = tested on: KM-20L2
M19-MEL = tested on: M19-MEL
NCI-H226 = tested on: NCI-H226
OVCAR-5 = tested on: OVCAR-5
SF-268 = tested on: SF-268

With `COC(=O)c1cc(-c2cccn2C)c2c(c1C(=O)OC)c1ccccc1n2C` the GI50 (786-0) was > 100 µM (inactive), the GI50 (A549) was 31.8 µM (inactive) and the GI50 (ACHN) was 17.9 µM (inactive). For the same compound, the GI50 (COLO 205) was 32.9 µM (inactive), the GI50 (DLD-1) was 7.62 µM (inactive) and the GI50 (DMS-114) was 40.3 µM (inactive). For the same compound, the GI50 (DMS-273) was 34.1 µM (inactive), the GI50 (HCC 2998) was 45.5 µM (inactive) and the GI50 (HCT-15) was 22.4 µM. The GI50 (HL-60) was 37.5 µM (inactive), the GI50 (HOP-18) was > 100 µM (inactive) and the GI50 (HOP-92) was 50.5 µM (inactive). The GI50 (HT-29) was 6.98 µM (inactive), the GI50 (IGROV-1) was > 100 µM (inactive) and the GI50 (K562) was 13.5 µM (inactive). The GI50 (KM12) was 53.7 µM (inactive), the GI50 (LOX IMVI) was 56 µM (inactive) and the GI50 (LXFL 529) was 40.2 µM (inactive). The GI50 (M14) was 77.4 µM (inactive), the GI50 (MOLT-4) was 3.13 µM (inactive) and the GI50 (Malme-3M) was > 100 µM (inactive). For the same compound, the GI50 (NCI-H23) was 85.7 µM (inactive), the GI50 (NCI-H460) was 39.8 µM (inactive) and the GI50 (NCI-H522) was 18.1 µM (inactive). For the same compound, the GI50 (OVCAR-3) was 12.7 µM (inactive), the GI50 (OVCAR-4) was 37.8 µM (inactive) and the GI50 (OVCAR-8) was 56.9 µM (inactive). For the same compound, the GI50 (RPMI-8226) was 43.7 µM (inactive), the GI50 (RXF 393) was > 100 µM (inactive) and the GI50 (RXF 631) was 80.4 µM (inactive). For the same compound, the GI50 (SF-295) was 41.3 µM (inactive), the GI50 (SF-539) was 43.8 µM (inactive) and the GI50 (SK-MEL-28) was 71.1 µM (inactive). For the same compound, the GI50 (SK-MEL-2) was > 100 µM (inactive), the GI50 (SK-MEL-5) was 44.3 µM (inactive) and the GI50 (SK-OV-3) was > 100 µM (inactive). For the same compound, the GI50 (SN12C) was > 100 µM (inactive), the GI50 (SNB-19) was > 100 µM (inactive) and the GI50 (SNB-75) was 71.4 µM (inactive). For the same compound, the GI50 (SNB-78) was > 100 µM (inactive), the GI50 (SR) was 16.9 µM (inactive) and the GI50 (SW-620) was 85.1 µM (inactive). The GI50 (TK-10) was > 100 µM (inactive), the GI50 (U-251) was 70.5 µM (inactive) and the GI50 (UACC-257) was 82 µM (inactive). For the same compound, the GI50 (UACC-62) was > 100 µM (inactive), the GI50 (UO-31) was > 100 µM (inactive) and the GI50 (XF498) was > 100 µM (inactive).
In the case of `CC/C(C)=C1\CCC(CN(C)C)C1=O` (stereo not drawn), the GI50 (786-0) is reported as 15.8 µM (inactive), the GI50 (A498) is reported as 20.6 µM (inactive) and the GI50 (A549) is reported as 22.9 µM (inactive). For the same compound, the GI50 (ACHN) was 18.9 µM (inactive), the GI50 (CAKI-1) was 1.91 µM (inactive) and the GI50 (CCRF-CEM) was 15.9 µM (inactive). The GI50 (DLD-1) was 16.4 µM (inactive), the GI50 (DMS-114) was 23.4 µM (inactive) and the GI50 (DMS-273) was 18.9 µM (inactive). The GI50 (EKVX) was 21.9 µM (inactive), the GI50 (HCC 2998) was 25.2 µM (inactive) and the GI50 (HCT-116) was 17.8 µM (inactive). The GI50 (HCT-15) was 15.8 µM, the GI50 (HL-60) was 18.4 µM (inactive) and the GI50 (HOP-18) was 18.2 µM (inactive). For the same compound, the GI50 (HOP-62) was 42.2 µM (inactive), the GI50 (HOP-92) was 23.2 µM (inactive) and the GI50 (HT-29) was 23.1 µM (inactive). For the same compound, the GI50 (IGROV-1) was 20 µM (inactive), the GI50 (K562) was 20 µM (inactive) and the GI50 (KM-20L2) was 21.7 µM (inactive). The GI50 (KM12) was 15 µM (inactive), the GI50 (LOX IMVI) was 20.6 µM (inactive) and the GI50 (LXFL 529) was 16.3 µM (inactive). The GI50 (M14) was 19.5 µM (inactive), the GI50 (M19-MEL) was 18.1 µM (inactive) and the GI50 (MOLT-4) was 26.7 µM (inactive). The GI50 (Malme-3M) was 22 µM (inactive), the GI50 (NCI-H226) was > 100 µM (inactive) and the GI50 (NCI-H23) was 21.2 µM (inactive). The GI50 (NCI-H460) was 19.3 µM (inactive), the GI50 (OVCAR-3) was 19.1 µM (inactive) and the GI50 (OVCAR-4) was 17.6 µM (inactive). For the same compound, the GI50 (OVCAR-5) was 19.1 µM (inactive), the GI50 (OVCAR-8) was 27.6 µM (inactive) and the GI50 (RPMI-8226) was 2.82 µM (inactive). The GI50 (RXF 393) was 20.7 µM (inactive), the GI50 (RXF 631) was 19.9 µM (inactive) and the GI50 (SF-268) was 25.4 µM (inactive). The GI50 (SF-295) was > 100 µM (inactive), the GI50 (SF-539) was 18.7 µM (inactive) and the GI50 (SK-MEL-28) was 22.9 µM (inactive). For the same compound, the GI50 (SK-MEL-2) was 17.6 µM (inactive), the GI50 (SK-MEL-5) was 33.3 µM (inactive) and the GI50 (SN12C) was 20.1 µM (inactive). For the same compound, the GI50 (SNB-19) was > 100 µM (inactive), the GI50 (SNB-75) was 16.3 µM (inactive) and the GI50 (SNB-78) was 24.8 µM (inactive). The GI50 (SR) was 19.3 µM (inactive), the GI50 (SW-620) was 22.9 µM (inactive) and the GI50 (TK-10) was 17.3 µM (inactive). For the same compound, the GI50 (UACC-257) was 17.3 µM (inactive), the GI50 (UACC-62) was 33.3 µM (inactive) and the GI50 (UO-31) was 20.2 µM (inactive). The GI50 (XF498) was 19.7 µM (inactive).

— ChEMBL document CHEMBL1201862, “PubChem BioAssay data set” (2004)
